PMC3849007 (Journal of Experimental & Clinical Cancer Research : CR, 2013)
pIC50: −log10 of the molar value.

Columns and labels:
[1] = target: T1, hERG (Homo sapiens, UniProt Q12809); assay: hERG tail current inhibition, patch clamp assay; type: cell-based; conditions: human, HEK293 cells (hERG study), 10 μM, HEK293 cells, read-out: hERG % inhib. (10 μM)
T1 construct: expressed in transfected cells; host or cells: HEK293
Description: (§1) For hERG study, HEK293 cells were cultured (1–7 days) in DMEM/GlutaMax-1 + 10% FBS and were plated on collagen-coated dishes (about 2×10^4 cells/dish). The cell was held at -80 mV. A 50-millisecond pulse to -40 mV was delivered to measure the leaking currents, which were subtracted from the tail currents online. […] This paradigm was delivered once every 5 seconds to monitor the current amplitude. After the current amplitude stabilized, the test compound was delivered to the extracellular medium by a rapid solution changer perfusion system. During perfusion, the cell was repetitively stimulated with the protocol described above, and the current amplitude was continuously monitored. Data were acquired and analyzed by using pClamp (Axon Instruments), and Excel (Microsoft), and are reported as mean and individual values. The degree of inhibition (%) was obtained by measuring the tail current amplitude before and after drug superfusion (the difference current was normalized to control and multiplied by 100 to obtain the percent of inhibition). […] The concentration-response relationship of each compound was constructed from the percentage reductions of current amplitude by sequential concentrations. β2-adrenergic receptor CHO expressing cells were used for the receptor inhibition assay as described. The results are expressed as a percent of inhibition of control specific binding (100 - (measured specific binding/control specific binding) × 100)) obtained in the presence of the test compounds. The specific ligand binding to the receptors is defined as the difference between the total binding and the nonspecific binding determined in the presence of an excess of unlabelled ligand. All the in-vivo experiments were carried out at the Regina Elena Cancer Institute. All procedures involving animals and care were performed in compliance with our institutional animal care guidelines and with international directives (directive 2010/63/EU of the European parliament and of the council; Guide for the Care and Use of Laboratory Animals, United States National Research Council, 2011).

[2] = target: T2, hERG (human Ether-a-go-go Related Gene) tail current (Homo sapiens, UniProt Q12809); assay: hERG tail current inhibition, patch clamp assay; type: cell-based
T2 construct: expressed in transfected cells; host or cells: HEK293
Description: as §1

[3] = tested on: h-Tel (anti-parallel) quadruplex; assay: CD thermal unfolding of h-Tel quadruplex; type: binding, human; conditions: for CD study thermal stability ∆Tm: compared to h-Tel without bound ligand (Tm 70 ± 3); for CD study thermal stability Tm: h-Tel 4 μM with 3.5 mol.equiv. ligand, K+ solution, unfolding at 290 nm
Description: CD spectra were recorded on an Applied Photophysics Pi-Star-180 spectrophotometer (Applied Photophysics Ltd, Surrey, UK). The optical system was configured with a 75 W Xe lamp, circular light polarizer and end-mounted photomultiplier. The instrument had previously been calibrated with (D)-camphorsulfonic acid. Temperature was regulated using a Neslab RTE-300 circulating programmable water bath (Neslab Inc). CD spectra were recorded at 298 K in a 10 mm path length cell over a wavelength range of 215–345 nm in steps of either 1 0r 2 nm, with 3 nm entrance/exit slit widths: the number of counts was set to 10,000 with adaptive sampling set to 500,000. The spectra were corrected by subtracting the spectrum of the same buffer solution of 100 mM potassium chloride and 10 mM potassium phosphate at pH 7.0. Annealing and melting profiles were recorded using a thermoelectric temperature controller (Melcor) on 4 μM DNA samples with and without 3.5 mol.equiv. of ligands using 0.5 K temperature increments and a cooling or heating rate of 0.2 K/min over the temperature range 298-368 K.
This analysis was extended to examine the effects of ligand binding on thermal stability by measuring the unfolding curves at 290 nm of the complexes formed in K^+ solution, corresponding to the CD spectra shown in Figure 4a. Monitoring the thermal unfolding transition for h-Tel produces a sigmoidal unfolding curve with a transition mid-point Tm value of 72 ± 3°C (Figure 4c). All three ligands show significant effects in enhancing the stability of the quadruplex by shifting the Tm values to higher temperatures (∆Tm ~ 15-19°C compared to h-Tel without bound ligands) (Table 1).

[4] = tested on: BJ-EHLT fibroblasts; assay: Proliferation assay, transformed fibroblasts; type: cell-based, human; conditions: 0.5 μM, culture day 2 to 8
Description: BJ fibroblasts expressing hTERT (BJ-hTERT) or hTERT and SV40 early region (BJ-EHLT), were obtained as previously reported. Cells were grown in Dulbecco Modified Eagle Medium (D-MEM, Invitrogen Carlsbad, CA, USA) supplemented with 10% fetal calf serum, 2 mM L-glutamin and antibiotics.
5 × 10^4 cells were seeded in 60-mm Petri plates (Nunc, MasciaBrunelli, Milano, Italy) and 24 h after plating, 0.5 μM of freshly dissolved compound was added to the culture medium. Cell counts (Coulter Counter, Kontron Instruments, Milano, Italy) and viability (trypan blue dye exclusion) were determined daily, from day 2 to day 8 of culture.

[5] = tested on: Telomere dysfunction Induced Foci in BJ-EHLT fibroblasts; assay: TIF analysis (γH2AX/TRF1 co-localization); type: cell-based, human; conditions: 24 hrs; for number of TIFs per nucleus: mean
Description: Cells were fixed in 2% formaldehyde and permeabilized in 0.25% Triton X100 in PBS for 5 min at room temperature. For immunolabeling, cells were incubated with primary antibody, then washed in PBS and incubated with the secondary antibodies. The following primary antibodies were used: pAb and mAb anti-TRF1 (Abcam Ltd.; Cambridge UK); mAb (Upstate, Lake Placid, NY) and pAb anti-γH2AX (Abcam). The following secondary antibody were used: TRITC conjugated Goat anti Rabbit, FITC conjugated Goat anti Mouse (Jackson ImmunoResearch Europe Ltd., Suffolk, UK). Fluorescence signals were recorded by using a Leica DMIRE2 microscope equipped with a Leica DFC 350FX camera and elaborated by a Leica FW4000 deconvolution software (Leica, Solms, Germany). This system permits to focus single planes inside the cell generating 3D high-resolution images. For quantitative analysis of γH2AX positivity, 200 cells on triplicate slices were scored. For TIF’s analysis, in each nucleus a single plane was analyzed and at least 50 nuclei per sample were scored.

[6] = tested on: h-Tel 5'-d[AGGG(TTAGGG)3]-3' (DNA, G4) AGGGTTAGGGTTAGGGTTAGGG; assay: CD melting at 290 nm; conditions: 110 mM K+ (100 mM KCl, potassium phosphate), 10 mM potassium phosphate, pH 7.0, 4 μM DNA, 3.5 mol equiv. ligand
[7] = tested on: duplex (D) DNA hairpin, 5'-biotin-CGA3T3C(CT)2GA3T3CG (DNA, hairpin) CGAAATTTCCTCTGAAATTTCG; assay: surface plasmon resonance; conditions: 200 mM KCl; 10 mM HEPES, 3 mM EDTA, 0.01% P20, pH 7.4
[8] = tested on: h-Tel quadruplex DNA 5′-d[AGGG(TTAGGG)3]-3′; assay: Surface plasmon resonance, quadruplex DNA; conditions: for Surface plasmon resonance K, Quadruplex (Q) DNA: 10 mM HEPES, 200 mM KCl, 3 mM EDTA, 0.01% P20, pH 7.4, equilibrium binding constant
Description: Oligonucleotides 5′-biotin-d[AG3(T2AG3)3] quadruplex and 5′-biotin-CGA3T3C(CT)2GA3T3CG were purchased from Midland Certified Reagent Company (Midland, TX).
In the present work these measurements were repeated comparing ligand binding to the same h-Tel sequence but with a different duplex sequence 5′-d[CGA3T3C(CT)2GA3T3CG]-3′ as comparator.

T2 sequence (Q12809 whole entry): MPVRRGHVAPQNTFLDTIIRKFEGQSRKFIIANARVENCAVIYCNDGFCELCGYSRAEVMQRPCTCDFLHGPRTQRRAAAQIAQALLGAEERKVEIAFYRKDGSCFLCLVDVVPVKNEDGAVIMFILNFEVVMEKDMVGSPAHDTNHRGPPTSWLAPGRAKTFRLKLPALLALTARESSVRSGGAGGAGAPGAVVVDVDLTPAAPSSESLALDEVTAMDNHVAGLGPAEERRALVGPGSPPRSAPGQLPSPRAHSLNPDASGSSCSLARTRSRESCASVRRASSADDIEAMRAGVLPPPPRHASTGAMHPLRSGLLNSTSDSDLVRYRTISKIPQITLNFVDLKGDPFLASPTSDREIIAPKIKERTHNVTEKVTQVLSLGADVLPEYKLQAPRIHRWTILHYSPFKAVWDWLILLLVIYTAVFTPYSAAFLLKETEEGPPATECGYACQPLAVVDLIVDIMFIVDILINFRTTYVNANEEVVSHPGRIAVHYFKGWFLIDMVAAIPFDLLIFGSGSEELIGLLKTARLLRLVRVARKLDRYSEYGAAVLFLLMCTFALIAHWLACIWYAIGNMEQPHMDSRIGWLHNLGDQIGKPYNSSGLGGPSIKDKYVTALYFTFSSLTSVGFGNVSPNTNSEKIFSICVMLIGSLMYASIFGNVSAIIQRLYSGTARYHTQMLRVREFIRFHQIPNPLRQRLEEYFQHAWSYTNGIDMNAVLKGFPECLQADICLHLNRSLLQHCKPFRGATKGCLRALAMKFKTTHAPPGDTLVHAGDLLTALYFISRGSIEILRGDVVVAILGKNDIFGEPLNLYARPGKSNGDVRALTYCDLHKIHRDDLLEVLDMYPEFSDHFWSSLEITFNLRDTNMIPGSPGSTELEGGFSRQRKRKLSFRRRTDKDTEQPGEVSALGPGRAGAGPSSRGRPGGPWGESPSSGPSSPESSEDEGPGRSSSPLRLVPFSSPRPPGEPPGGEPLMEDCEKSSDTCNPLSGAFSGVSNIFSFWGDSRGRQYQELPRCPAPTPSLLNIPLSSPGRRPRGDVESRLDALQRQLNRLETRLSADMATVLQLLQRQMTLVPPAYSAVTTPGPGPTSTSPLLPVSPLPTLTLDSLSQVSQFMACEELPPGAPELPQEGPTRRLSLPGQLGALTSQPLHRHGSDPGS
T1 sequence (Q12809 whole entry): as above

Structure (SMILES)	inhibition at 10 µM [1] [%]	pIC50 [2]	CD study thermal stability ∆Tm [3] [°C]	CD study thermal stability Tm [3] [°C]	day of maximum effect on cell proliferation [4]	number of TIFs per nucleus [5]	∆Tm ([6]; Tm 86 ± 3) [°C]	K [7] [M⁻¹]	Surface plasmon resonance K, Quadruplex (Q) DNA [8] [M⁻¹]	Ratio Q/D (SPR) ([8]; quadruplex K / duplex K)	percentage of TIF-positive cells ([5]; cells with more than four γH2AX/TRF1 co-localizations)	∆Tm ([6]; Tm 85 ± 3) [°C]
Cc1cc2c3c([n+](C)c4ccc(F)cc4c3c1)-c1cc(F)ccc1N2C [Compound 1, 3,11-Difluoro-6,8,13-trimethyl-8H-quino[4,3,2-kl]acridinium metho-sulfate]	100	6.70	16	86 ± 3	6 days	ca. eight	16	600000	8.3e+06	13.8	–	–
CC(=O)Nc1ccc2c(c1)c1cccc3c1c([n+]2C)-c1ccccc1N3C [Compound 3, 3-acetylamino-8,13-dimethyl-8H-quino[4,3,2-kl]-acridinium iodide]	21	4.74	15	85 ± 3	seven	six	–	700000	8e+06	–	significant but less pronounced effect	15
